According to patent US8058290B2, “7-substituted aza-indazoles, compositions containing same, production method and use thereof” (Aventis Pharma S.A., priority 2005, dated 2011):
Structures can show the parent of a compound that is named as a salt.

What was measured:
Assay type in all cases: biochemical
human KDR enzyme = target: T1, human KDR enzyme (Homo sapiens, UniProt P35968); assay: KDR substrate phosphorylation assay (scintillation, 96-well plate); details: cytoplasmic domain of human KDR as GST fusion, 2 μM cold ATP, 1 hour at 37° C.
T1 construct: The cytoplasmic domain of the human KDR enzyme was cloned in the form of a GST fusion; GST; made in house; host or cells: SF21 insect cells (baculovirus, pFastBac)
T1 sequence (P35968 786-1356 limits assumed): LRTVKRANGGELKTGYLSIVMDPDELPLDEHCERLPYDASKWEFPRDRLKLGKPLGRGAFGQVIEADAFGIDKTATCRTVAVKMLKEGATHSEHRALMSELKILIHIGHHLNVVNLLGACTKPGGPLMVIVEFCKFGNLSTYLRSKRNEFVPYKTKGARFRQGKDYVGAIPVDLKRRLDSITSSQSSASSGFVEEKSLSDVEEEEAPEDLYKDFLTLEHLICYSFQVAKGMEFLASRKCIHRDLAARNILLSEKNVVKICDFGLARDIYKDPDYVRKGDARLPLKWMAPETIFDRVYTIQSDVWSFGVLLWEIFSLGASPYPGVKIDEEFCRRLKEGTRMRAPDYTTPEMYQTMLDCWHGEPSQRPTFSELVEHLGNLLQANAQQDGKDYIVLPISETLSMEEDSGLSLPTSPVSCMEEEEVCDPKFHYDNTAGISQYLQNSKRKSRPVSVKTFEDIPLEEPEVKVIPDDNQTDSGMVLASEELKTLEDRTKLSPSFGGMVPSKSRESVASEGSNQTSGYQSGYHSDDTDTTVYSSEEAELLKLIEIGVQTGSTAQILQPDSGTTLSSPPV
Experimental: 2. KDR The inhibitory effect of the compounds is determined in an assay of substrate phosphorylation by the KDR enzyme in vitro using a scintillation technique (96-well plate, NEN). The cytoplasmic domain of the human KDR enzyme was cloned in the form of a GST fusion into the baculovirus expression vector pFastBac. The protein was expressed in SF21 cells and purified to approximately 60% homogeneity. The kinase activity of KDR is measured in 20 mM MOPS, 10 mM MgCl2, 10 mM MnCl2, 1 mM DTT, 2.5 mM EGTA and 10 mM b-glycerophosphate, pH=7.2, in the presence of 10 mM MgCl2, 100 μM Na3VO4 and 1 mM NaF. 10 μl of the compound are added to 70 μl of kinase buffer containing 100 ng of KDR enzyme at 4° C. The reaction is initiated by adding 20 μl of solution containing 2 μg of substrate (SH2-SH3 fragment of PLCγ expressed in the form of a GST fusion protein), 2 μCi γ^33P[ATP] and 2 μM cold ATP. After incubation for 1 hour at 37° C., the reaction is stopped by adding 1 volume (100 μl) of 200 mM EDTA. The incubation buffer is removed, and the wells are washed three times with 300 μl of PBS. The radioactivity is measured in each well using a Top Count NXT radioactivity counter (Packard). The background noise is determined by measuring the radioactivity in four different wells containing radioactive ATP and the substrate alone. A total activity control is measured in four different wells containing all the reactants (γ^33P-[ATP], KDR and PLCγ substrate) but in the absence of compound. The inhibition of the KDR activity with the compound of the invention is expressed as percentage inhibition of the control activity determined in the absence of compound. The compound SU5614 (Calbiochem) (1 μM) is included in each plate as an inhibition control.

human Tie2 = target: T2, human Tie2 (Homo sapiens, UniProt Q02763); assay: Tie2 PLC phosphorylation assay (GST-Tie2, FlashPlate); details: GST-Tie2 intracellular domain, 2 μM cold ATP, 1 hour at 37° C.; read-out: IC 50 Tie2
T2 construct: corresponding to the intracellular domain amino acids 776-1124 was generated by PCR; made in house; host or cells: baculovirus expression (pFastBacGT)
T2 sequence (Q02763 776-1124): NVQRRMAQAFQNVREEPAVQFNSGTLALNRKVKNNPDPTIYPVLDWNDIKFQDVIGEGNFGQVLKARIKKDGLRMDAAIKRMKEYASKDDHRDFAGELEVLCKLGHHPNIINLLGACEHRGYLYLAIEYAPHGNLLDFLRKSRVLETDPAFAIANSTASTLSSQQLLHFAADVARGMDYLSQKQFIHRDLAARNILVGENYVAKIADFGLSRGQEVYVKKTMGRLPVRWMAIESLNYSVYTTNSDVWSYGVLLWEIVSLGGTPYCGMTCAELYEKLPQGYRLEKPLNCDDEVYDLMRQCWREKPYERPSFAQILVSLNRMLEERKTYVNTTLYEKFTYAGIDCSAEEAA
Experimental: The human Tie2 coding sequence corresponding to the intracellular domain amino acids 776-1124 was generated by PCR using the cDNA isolated from human placenta as model. This sequence was introduced into a baculovirus expression vector pFastBacGT in the form of a GST fusion protein.
The inhibitory effect of the molecules is determined in an assay of PLC phosphorylation by Tie2 in the presence of GST-Tie2 purified to approximately 80% of homogeneity. The substrate is composed of the SH2-SH3 fragments of PLC expressed in the form of a GST fusion protein.
The kinase activity of Tie2 is measured in a 20 mM MOPS buffer, pH 7.2, containing 10 mM MgCl2, 10 mM MnCl2, 1 mM DTT and 10 mM of glycerophosphate. In a FlashPlate 96-well plate kept on ice, a reaction mixture composed of 70 μl of kinase buffer containing 100 ng of GST-Tie2 enzyme is deposited per well. 10 μl of the test molecule diluted, in DMSO, to a concentration of at most 10% are subsequently added. For a given concentration, each measurement is carried out in quadruplicate. The reaction is initiated by adding 20 μl of solution containing 2 μg of GST-PLC, 2 μM of cold ATP and 1 μCi of ^33P[ATP]. After incubation for 1 hour at 37° C., the reaction is stopped by adding 1 volume (100 μl) of EDTA at 200 mM. After removal of the incubation buffer, the wells are washed three times with 300 μl of PBS. The radioactivity is measured on a Wallac MicroBeta1450.
The inhibition of the Tie2 activity is calculated and expressed as percentage inhibition relative to the control activity determined in the absence of compound.

human FAK = target: T3, human FAK (Homo sapiens, UniProt Q05397); assay: FAK autophosphorylation time resolved fluorescence assay (HTRF); details: 15 μM ATP, 1 hour at 37° C.
T3 construct: The complete cDNA of human FAK, the N-terminal end of which had been labelled with histidine; made in house; host or cells: baculovirus expression (pFastBac HTc)
T3 sequence (Q05397 whole entry): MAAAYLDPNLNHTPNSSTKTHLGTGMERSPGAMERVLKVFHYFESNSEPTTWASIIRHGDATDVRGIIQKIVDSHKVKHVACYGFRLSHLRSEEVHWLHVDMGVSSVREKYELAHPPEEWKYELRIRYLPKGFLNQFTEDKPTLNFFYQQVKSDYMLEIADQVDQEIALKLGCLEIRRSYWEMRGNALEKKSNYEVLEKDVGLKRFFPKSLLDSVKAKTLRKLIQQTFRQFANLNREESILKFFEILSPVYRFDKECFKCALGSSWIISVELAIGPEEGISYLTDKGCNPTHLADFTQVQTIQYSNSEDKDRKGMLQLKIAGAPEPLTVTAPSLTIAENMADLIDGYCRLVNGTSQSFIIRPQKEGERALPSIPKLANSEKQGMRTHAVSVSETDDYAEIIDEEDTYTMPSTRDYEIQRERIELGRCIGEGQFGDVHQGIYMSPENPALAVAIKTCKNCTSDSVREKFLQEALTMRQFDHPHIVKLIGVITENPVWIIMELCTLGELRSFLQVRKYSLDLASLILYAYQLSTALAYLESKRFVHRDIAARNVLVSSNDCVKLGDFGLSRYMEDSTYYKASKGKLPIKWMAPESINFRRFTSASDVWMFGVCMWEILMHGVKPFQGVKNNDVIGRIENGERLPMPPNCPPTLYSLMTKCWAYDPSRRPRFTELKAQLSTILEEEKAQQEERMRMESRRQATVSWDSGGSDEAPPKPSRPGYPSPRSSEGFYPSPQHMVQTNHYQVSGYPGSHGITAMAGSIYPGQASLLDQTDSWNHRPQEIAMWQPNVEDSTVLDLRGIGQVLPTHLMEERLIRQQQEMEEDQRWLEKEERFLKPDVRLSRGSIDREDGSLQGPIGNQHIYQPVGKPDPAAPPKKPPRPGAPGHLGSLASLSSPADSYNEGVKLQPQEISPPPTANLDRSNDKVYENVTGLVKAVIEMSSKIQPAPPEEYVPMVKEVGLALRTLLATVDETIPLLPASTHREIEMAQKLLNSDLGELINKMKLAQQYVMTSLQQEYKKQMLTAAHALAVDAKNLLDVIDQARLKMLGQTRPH
Experimental: Determination of the Activity of the Compounds—Experimental Protocols 1. FAK
The inhibitory activity of the compounds on FAK is determined by measuring the inhibition of autophosphorylation of the enzyme using a time resolved fluorescence assay (HTRF).
The complete cDNA of human FAK, the N-terminal end of which had been labelled with histidine, was cloned into a baculovirus expression vector pFastBac HTc. The protein was expressed and purified to approximately 70% homogeneity.
The kinase activity is determined by incubating the enzyme (6.6 μg/ml) with various concentrations of test compound in a 50 mM Hepes buffer, pH=7.2, containing 10 mM MgCl2, 100 μM Na3VO4, and 15 μM of ATP for 1 hour at 37° C. […] The XL-665-specific long-lasting signal is measured in a Packard Discovery plate counter. All the assays were carried out in duplicate and the mean of the two assays is calculated. The inhibition of the FAK autophosphorylation activity with compounds of the invention is expressed as percentage inhibition relative to a control, the activity of which is measured in the absence of test compound. […]

Structure (SMILES) | IC50 (human KDR enzyme) | IC50 (human Tie2) | IC50 (human FAK)
Nc1n[nH]c2nc(-c3ccc(NC(=O)Nc4cc(C(F)(F)F)ccc4F)cc3)ccc12 [Example 1, 1-[4-(3-Amino-1H-pyrazolo[3,4-b]pyridin-6-yl)phenyl]-3-(2-fluoro-5-trifluoromethylphenyl)urea] | 119 nM | 192 nM | 
O=C(Nc1ccc(-c2ccc3c(NC(=O)c4ccsc4)n[nH]c3n2)cc1)Nc1cc(C(F)(F)F)ccc1F [Example 2, Thiophene-3-carboxylic acid (6-{4-[3-(2-fluoro-5-trifluoromethylphenyl)ureido]phenyl}-1H-pyrazolo[3,4-b]pyridin-3-yl)amide] | 6 nM | 7 nM | 
Nc1n[nH]c2nc(-c3ccc(NS(=O)(=O)c4cccc(Cl)c4Cl)cc3)ccc12 [Example 3, N-[4-(3-Amino-1H-pyrazolo[3,4-b]pyridin-6-yl)phenyl]-2,3-dichlorobenzenesulphonamide] |  | 75 nM | 
O=C(Nc1ncc(-c2cc(C(=O)NCCN3CCOCC3)c3cn[nH]c3n2)s1)Nc1cc(C(F)(F)F)ccc1F [Example 4, 6-{2-[3-(2-Fluoro-5-trifluoromethylphenyl)ureido]thiazol-5-yl}-1H-pyrazolo[3,4-b]pyridine-4-carboxylic acid (2-morpholin-4-ylethyl)amide trifluoroacetate] | 83 nM | 1 nM | 343 nM
CNC(=O)c1cc(-c2ccc(NS(=O)(=O)c3cccc(Cl)c3Cl)cc2)nc2[nH]ncc12 [Example 5] |  | 13 nM | 
O=C(Nc1ccccc1)Nc1ncc(-c2cc(C(=O)NCCN3CCOCC3)c3cn[nH]c3n2)s1 [Example 9] | 6820 nM | 443 nM | 
CNC(=O)c1cc(-c2cnc(NC(=O)Nc3cc(C(F)(F)F)ccc3F)s2)nc2[nH]ncc12 [Example 11] | 581 nM | 8 nM | 927 nM
CN(C)CCNC(=O)c1cc(-c2cnc(NC(=O)Nc3cc(C(F)(F)F)ccc3F)s2)nc2[nH]ncc12 [Example 12] | 2360 nM | 30 nM | 
CN(C)CC(C)(C)CNC(=O)c1cc(-c2cnc(NC(=O)Nc3cc(C(F)(F)F)ccc3F)s2)nc2[nH]ncc12 [Example 13] | 373 nM | 4 nM | 
O=C(Nc1ncc(-c2cc(C(=O)NCCc3cnc[nH]3)c3cn[nH]c3n2)s1)Nc1cc(C(F)(F)F)ccc1F [Example 14] | 293 nM | 7 nM | 
O=C(Nc1ncc(-c2cc(C(=O)N3CCOCC3)c3cn[nH]c3n2)s1)Nc1cc(C(F)(F)F)ccc1F [Example 15] | 70 nM | 2 nM | 
O=C(Nc1ncc(-c2cc(C(=O)N3CCNCC3)c3cn[nH]c3n2)s1)Nc1cc(C(F)(F)F)ccc1F [Example 16] | 200 nM | 7 nM | 
CN1CCN(C(=O)c2cc(-c3cnc(NC(=O)Nc4cc(C(F)(F)F)ccc4F)s3)nc3[nH]ncc23)CC1 [Example 17] | 46 nM | 1 nM | 
CNC(=O)c1cc(-c2ccc(NC(=O)Nc3cc(C(F)(F)F)ccc3F)nc2)nc2[nH]ncc12 [Example 20] |  | 777 nM | 
O=C(Nc1ccc(-c2cc(C(=O)NCCN3CCOCC3)c3cn[nH]c3n2)cn1)Nc1cc(C(F)(F)F)ccc1F [Example 21] |  | 6030 nM | 
O=C(Nc1ncc(-c2cc(C(=O)NCCCN3CCOCC3)c3cn[nH]c3n2)s1)Nc1cc(C(F)(F)F)ccc1F [Example 22] | 511 nM | 4 nM | 
O=C(Nc1ncc(-c2cc(C(=O)NCCN3CCNCC3)c3cn[nH]c3n2)s1)Nc1cc(C(F)(F)F)ccc1F [Example 23] | 527 nM | 6 nM | 
O=C(Nc1ncc(-c2cc(C(=O)NCCC3CCNCC3)c3cn[nH]c3n2)s1)Nc1cc(C(F)(F)F)ccc1F [Example 24] | 133 nM | 2 nM | 
O=C(Nc1ncc(-c2cc(C(=O)NCCO)c3cn[nH]c3n2)s1)Nc1cc(C(F)(F)F)ccc1F [Example 26] | 387 nM | 3 nM | 
O=C(Nc1ncc(-c2cc(C(=O)NCc3ccncc3)c3cn[nH]c3n2)s1)Nc1cc(C(F)(F)F)ccc1F [Example 28] | 4660 nM | 105 nM | 
O=C(Nc1ncc(-c2cc(C(=O)NCc3ccccn3)c3cn[nH]c3n2)s1)Nc1cc(C(F)(F)F)ccc1F [Example 29] | 160 nM | 3 nM | 
O=C(Nc1ncc(-c2cc(C(=O)NCCCN3CCCC3CO)c3cn[nH]c3n2)s1)Nc1cc(C(F)(F)F)ccc1F (stereo not shown) [Example 31] | 647 nM | 9 nM | 
CNC(=O)c1cc(-c2cccc(NC(=O)Nc3cc(C(F)(F)F)ccc3F)c2)nc2[nH]ncc12 [Example 33] |  | 2700 nM | 
O=C(Nc1cccc(-c2cc(C(=O)NCCN3CCOCC3)c3cn[nH]c3n2)c1)Nc1cc(C(F)(F)F)ccc1F [Example 34] |  | 4140 nM | 
O=C(Nc1ccc(C(F)(F)F)cc1)Nc1ncc(-c2cc(C(=O)NCCN3CCOCC3)c3cn[nH]c3n2)s1 [Example 55] | 3540 nM | 88 nM | 
